Experimental data: publication PMC7605239 (Cell, 2020)
Read-outs that look alike come from different tables or passages of the source.

Tests used:
[1] = target: T1, CR518 (chemotactile receptor 518) (Octopus bimaculoides, UniProt A0A0L8FVQ9); test: whole-cell patch clamp dose-response; assay type: cell-based
T1 sequence (A0A0L8FVQ9 21-399): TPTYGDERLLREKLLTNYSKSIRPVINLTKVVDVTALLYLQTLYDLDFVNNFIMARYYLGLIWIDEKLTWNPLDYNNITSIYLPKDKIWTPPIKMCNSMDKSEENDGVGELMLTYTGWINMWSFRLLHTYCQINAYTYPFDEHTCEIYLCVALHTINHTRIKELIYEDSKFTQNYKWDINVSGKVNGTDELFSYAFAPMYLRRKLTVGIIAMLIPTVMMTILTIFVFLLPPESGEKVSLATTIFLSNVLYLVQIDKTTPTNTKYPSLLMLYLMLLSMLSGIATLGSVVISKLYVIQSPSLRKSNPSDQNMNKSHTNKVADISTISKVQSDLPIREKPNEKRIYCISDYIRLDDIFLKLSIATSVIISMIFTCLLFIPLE

[2] = target: T1, CR518 (chemotactile receptor 518); test: whole-cell patch clamp dose-response; assay type: cell-based; remark: listed apart in the source
[3] = tested on: CR840 (chemotactile receptor 840); test: whole-cell patch clamp dose-response; assay type: cell-based, Octopus bimaculoides
[4] = target: T1, CR518 (chemotactile receptor 518); test: whole-cell patch clamp screen; assay type: cell-based

SMILES | EC50 [1] | EC50 [2] | other results
C=C1CCC[C@]2(C)Cc3occ(C)c3C[C@@H]12 [atractylon] | 29.4 µM |  | 
Cc1ccc(C(C)C)cc1O [carvacrol] |  | 204 µM | 
CCN(CC)CCCC(C)Nc1ccnc2cc(Cl)ccc12 (stereo not drawn) [chloroquine] | 92.3 µM |  | EC50 [3]: 10.3 µM
C=C(C)[C@@H]1CCC2=CC(=O)C[C@@H](C)[C@]2(C)C1 [nootkatone] |  | 24.7 µM | 
CC1(C)CCC[C@]2(C)[C@@H](C=O)C(C=O)=CC[C@@H]12 [polygodial] |  |  | whole-cell patch clamp screen (1 mM) [4]: CR518 was potently activated by terpenoids, including the physiologically-relevant sesquiterpene polygodial and furanosesquiterpene atractylon
